One assay has as its target human DPP1 enzyme (Homo sapiens (Human), UniProt P53634). As to the kind of experiment: Human DPP1 enzyme IC50 assay. Type of assay: biochemical. The settings on record: recombinant human DPP1, H-Gly-Arg-AMC substrate 400 μM. The method, boiled down: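 Fluorogenic readout (350/450 nm, every 5 min over 90 min, 37°C) of H-Gly-Arg-AMC cleavage at 400 μM final substrate. Compounds met activated DPP1 first for a 10-min 37°C pre-incubation in MES buffer pH 6.0 with DTT, 1% DMSO final. Four-parameter sigmoidal fit gave IC50.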

Another assay has as its target active mouse DPP1 enzyme (Mus musculus (Mouse), UniProt P97821). Briefly: Mouse DPP1 enzyme IC50 assay. Type of assay: biochemical. The following applies: active mouse DPP1, H-Gly-Arg-AMC substrate 400 μM. As to the method:
25 μL of compound in Assay Buffer plus 5% DMSO was first added to 50 μL of active mouse DPP1 enzyme at a concentration of 62.5 pg/μL and allowed to pre-incubate for 10 minutes at 37° C. after which 50 μL of 1000 μM H-Gly-Arg-AMC substrate (Bachem; St. Torrance, CA) was added, giving final substrate concentration of 400 μM and a final DMSO concentration of 1%. Substrate cleavage was measured for 90 minutes at 37° C., with fluorescence at Excitation/Emission 350/450 nm measured every 5 minutes. DPP1 concentration was interpolated based on its activity relative to a standard curve of recombinant active mouse DPP1 enzyme. IC50 values for each compound were calculated via the XLFit (IDBS Version 5.3.1.3) Add-On to Microsoft Excel using the four parameter fit equation y=(A+((B-A)/(1+((C/x)^D)))), which appears as equation number 205 (4 Parameter Logistic Model or Sigmoidal Dose-Response Model) in XLFit. Default constraints were used for each Parameter.

The target of another assay is DPP1 in HL-60 cells (Homo sapiens (Human), UniProt P53634). As to the kind of experiment: DPP1 Cell IC50 assay. Type of assay: cell-based. The settings on record: H-Gly-Phe-AFC substrate, 60 min pre-incubation. The method, boiled down:
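HL-60 cells (5×10^5 live cells/mL in PBS) were pre-incubated with compound in 0.5% DMSO for 60 min at 37 °C, 5% CO2, with shaking, then given 500 μM H-Gly-Phe-AFC solution for 30 min. Fluorescence was read at 400/505 nm. % inhibition was taken against vehicle wells, and IC50 came from a four-parameter logistic fit.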

Some results are limits rather than exact numbers.

DPP1 in HL-60 cells, sequence (P53634 25-134): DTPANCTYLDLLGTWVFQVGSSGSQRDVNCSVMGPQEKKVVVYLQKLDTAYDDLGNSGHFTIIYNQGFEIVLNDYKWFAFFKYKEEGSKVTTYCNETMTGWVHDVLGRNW
DPP1 in HL-60 cells, sequence (P53634 231-394): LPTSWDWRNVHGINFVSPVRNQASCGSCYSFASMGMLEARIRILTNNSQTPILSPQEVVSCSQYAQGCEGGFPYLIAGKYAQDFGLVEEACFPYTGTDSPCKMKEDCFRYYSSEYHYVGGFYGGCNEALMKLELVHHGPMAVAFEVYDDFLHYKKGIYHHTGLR
DPP1 in HL-60 cells, sequence (P53634 395-463): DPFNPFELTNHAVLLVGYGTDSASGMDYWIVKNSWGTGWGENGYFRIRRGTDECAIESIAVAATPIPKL
human DPP1 enzyme, sequence (P53634 25-134): as the sequence (P53634 25-134) above
human DPP1 enzyme, sequence (P53634 231-394): as the sequence (P53634 231-394) above
human DPP1 enzyme, sequence (P53634 395-463): as the sequence (P53634 395-463) above
active mouse DPP1 enzyme, sequence (P97821 25-134): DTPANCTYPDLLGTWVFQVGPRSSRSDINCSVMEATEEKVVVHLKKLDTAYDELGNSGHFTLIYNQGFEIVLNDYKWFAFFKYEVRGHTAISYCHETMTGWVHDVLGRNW
active mouse DPP1 enzyme, sequence (P97821 231-393): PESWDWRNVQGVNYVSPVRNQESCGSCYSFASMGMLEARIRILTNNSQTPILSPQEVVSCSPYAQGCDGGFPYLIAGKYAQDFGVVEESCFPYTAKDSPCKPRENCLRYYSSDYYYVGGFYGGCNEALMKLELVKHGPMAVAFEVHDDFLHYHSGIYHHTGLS
active mouse DPP1 enzyme, sequence (P97821 394-462): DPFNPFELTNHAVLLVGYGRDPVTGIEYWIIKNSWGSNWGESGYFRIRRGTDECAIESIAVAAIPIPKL

As for `CN[C@H](C)C(=O)N[C@H](C#N)Cc1ccc(-c2ccc3oc(=O)n(C)c3c2)cc1` [Compound 152, (R)—N—((S)-1-cyano-2-(4-(3-methyl-2-oxo-2,3-dihydrobenzo[d]oxazol-5-yl)phenyl)ethyl)-2-(methylamino)propanamide], the IC50 at human DPP1 enzyme was ≥ 15 nM; on active mouse DPP1 enzyme, ≥ 20 nM.

Turning to `Cn1c(=O)oc2ccc(-c3ccc(C[C@@H](C#N)NC(=O)CCC(N)=O)cc3)cc21` [Compound 153], the IC50 is ≥ 15 nM on human DPP1 enzyme and ≥ 20 nM against active mouse DPP1 enzyme. The corresponding values for `CN[C@@H](C)C(=O)N[C@H](C#N)Cc1ccc(-c2ccc3oc(=O)n(C)c3c2)cc1` [Compound 154] are ≥ 15 nM and ≥ 20 nM. The corresponding values for `Cn1c(=O)oc2ccc(-c3ccc(C[C@@H](C#N)NC(=O)C(C)(C)CN)cc3)cc21` [Compound 155] are ≥ 15 nM and ≥ 20 nM. The corresponding values for `CNCCC(=O)N[C@H](C#N)Cc1ccc(-c2ccc3oc(=O)n(C)c3c2)cc1` [Compound 156] are ≥ 15 nM and ≥ 20 nM. Take `Cn1c(=O)oc2ccc(-c3ccc(C[C@@H](C#N)NC(=O)CCN)cc3)cc21` [Compound 157]: the values for the IC50 at human DPP1 enzyme and at active mouse DPP1 enzyme were ≥ 15 nM and ≥ 20 nM, respectively. On the same counts, the results for `CN(C)CC(=O)N[C@H](C#N)Cc1ccc(-c2ccc3oc(=O)n(C)c3c2)cc1` [Compound 158] are ≥ 15 nM and ≥ 20 nM. For the compound `Cn1c(=O)oc2ccc(-c3ccc(C[C@@H](C#N)NC(=O)CC(N)C(N)=O)cc3)cc21` (stereo partly shown) [Compound 159], the IC50 at human DPP1 enzyme was ≥ 15 nM; against active mouse DPP1 enzyme, ≥ 20 nM.

For the compound `Cn1c(=O)oc2ccc(-c3ccc(C[C@@H](C#N)NC(=O)CNC(=O)c4cccs4)cc3)cc21` [Compound 239, N-[(1S)-1-cyano-2-[4-(3-methyl-2-oxo-1,3-benzoxazol-5-yl)phenyl]ethyl]-2-(thiophen-2-ylformamido)acetamide], on active mouse DPP1 enzyme, the IC50 is ≥ 20 nM. Still for that read-out and setting: the same measure for `Cn1c(=O)oc2ccc(-c3ccc(C[C@@H](C#N)NC(=O)CCOC(=O)c4cccs4)cc3)cc21` [Compound 244, 2-{[(1S)-1-cyano-2-[4-(3-methyl-2-oxo-1,3-benzoxazol-5-yl)phenyl]ethyl]carbamoyl}ethyl thiophene-2-carboxylate]: ≥ 20 nM; for `Cn1c(=O)oc2ccc(-c3ccc(C[C@@H](C#N)NC(=O)COC(=O)c4cccs4)cc3)cc21` [Compound 245, (S)-2-((1-cyano-2-(4-(3-methyl-2-oxo-2,3-dihydrobenzo[d]oxazol-5-yl)phenyl)ethyl)amino)-2-oxoethyl thiophene-2-carboxylate]: ≥ 20 nM.

In the case of `COCCN(C)CCn1c(=O)oc2ccc(-c3ccc(C[C@@H](C#N)NC(=O)[C@@](C)(N)C4CCC4)c(F)c3)cc21` [Compound 270A, (2S)-2-amino-N-[(1S)-1-cyano-2-[2-fluoro-4-(3-{2-[(2-methoxyethyl)(methyl)amino]ethyl}-2-oxo-1,3-benzoxazol-5-yl)phenyl]ethyl]-2-cyclobutylpropanamide], the IC50 is ≥ 15 nM on human DPP1 enzyme and ≥ 0.0025 µM against DPP1 in HL-60 cells. As for `COCCN(C)CCn1c(=O)oc2ccc(-c3ccc(C[C@@H](C#N)NC(=O)[C@](C)(N)C4CCC4)c(F)c3)cc21` [Compound 270B, (2R)-2-amino-N-[(1S)-1-cyano-2-[2-fluoro-4-(3-{2-[(2-methoxyethyl)(methyl)amino]ethyl}-2-oxo-1,3-benzoxazol-5-yl)phenyl]ethyl]-2-cyclobutylpropanamide], the values for the IC50 on human DPP1 enzyme and at DPP1 in HL-60 cells were ≤ 5 nM and 0.001 to 0.0025 µM, respectively. The corresponding values for `Cc1cn2cc(-c3ccc(C[C@@H](C#N)NC(=O)[C@@](C)(N)C4CCC4)c(F)c3)cc2c(C)n1` [Compound 272B, (S)-2-amino-N—((S)-1-cyano-2-(4-(1,3-dimethylpyrrolo[1,2-a]pyrazin-7-yl)-2-fluorophenyl)ethyl)-2-cyclobutylpropanamide] are 5 to 15 nM and 0.001 to 0.0025 µM.

On to `Cn1c(=O)oc2ccc(-c3ccc(C[C@@H](C#N)NC(=O)C4(N)CCCC45CC5)c(F)c3)cc21` (stereo partly drawn) [Compound 273B, (4R)-4-amino-N-[(1S)-1-cyano-2-[2-fluoro-4-(3-methyl-2-oxo-1,3-benzoxazol-5-yl)phenyl]ethyl]spiro[2.4]heptane-4-carboxamide], for which the IC50 at human DPP1 enzyme was ≤ 5 nM; at DPP1 in HL-60 cells, ≤ 0.001 µM. The corresponding values for `CN(C)C[C@H](O)C(=O)N[C@H](C#N)Cc1ccc(-c2ccc3c(n2)CCCN3)cc1F` [Compound 276, (2S)—N-[(1S)-1-cyano-2-[2-fluoro-4-(5,6,7,8-tetrahydro-1,5-naphthyridin-2-yl)phenyl]ethyl]-3-(dimethylamino)-2-hydroxypropanamide] are ≥ 15 nM and ≥ 0.0025 µM. As to `CN(C)C[C@H](O)C(=O)N[C@H](C#N)Cc1cc2c(cc1F)-c1ccc(C#N)cc1CO2` [Compound 277A, (2S)—N-[(1S)-1-cyano-2-{8-cyano-2-fluoro-6H-benzo[c]chromen-3-yl}ethyl]-3-(dimethylamino)-2-hydroxypropanamide], the figures for the IC50 at human DPP1 enzyme and against DPP1 in HL-60 cells were ≥ 15 nM and ≥ 0.0025 µM, respectively. On the same counts, the results for `CN(C)C[C@H](F)C(=O)N[C@H](C#N)Cc1ccc(-c2ccc3oc(=O)n(C)c3c2)cc1F` [Compound 278, (2S)—N-[(1S)-1-cyano-2-[2-fluoro-4-(3-methyl-2-oxo-1,3-benzoxazol-5-yl)phenyl]ethyl]-3-(dimethylamino)-2-fluoropropanamide] are ≥ 15 nM and ≥ 0.0025 µM. The corresponding values for `CN(C)C[C@H](O)C(=O)N[C@H](C#N)Cc1ccc(-c2ccc3c(c2)C(C2CCN(C4COC4)CC2)OC3)cc1` (stereo partly drawn) [Compound 281, (2S)—N-[(1S)-1-cyano-2-(4-{3-[1-(oxetan-3-yl)piperidin-4-yl]-1,3-dihydro-2-benzofuran-5-yl}phenyl)ethyl]-3-(dimethylamino)-2-hydroxypropanamide] are ≥ 15 nM and ≥ 0.0025 µM. The corresponding values for `CN(C)C[C@H](O)C(=O)N[C@H](C#N)Cc1ccc(-c2ccc3cnn(C4CCN(C5COC5)CC4)c3c2)cc1` [Compound 282, (2S)—N-[(1S)-1-cyano-2-(4-{1-[1-(oxetan-3-yl)piperidin-4-yl]indazol-6-yl}phenyl)ethyl]-3-(dimethylamino)-2-hydroxypropanamide] are ≥ 15 nM and ≥ 0.0025 µM.

For the compound `CN(C)C[C@H](O)C(=O)N[C@H](C#N)Cc1ccc(-c2ccc3c(c2)C2(CCN(C4COC4)CC2)OC3)cc1F` [Compound 283, (2S)—N-[(1S)-1-cyano-2-{2-fluoro-4-[1′-(oxetan-3-yl)-3H-spiro[2-benzofuran-1,4′-piperidin]-6-yl]phenyl}ethyl]-3-(dimethylamino)-2-hydroxypropanamide], the IC50 on human DPP1 enzyme is 5 to 15 nM; on DPP1 in HL-60 cells, ≥ 0.0025 µM.

Take `CO[C@@H](CN(C)C)C(=O)N[C@H](C#N)Cc1ccc(-c2ccc3c(c2)C2(CCN(C4COC4)CC2)OC3)cc1F` [Compound 284, (2S)—N-[(1S)-1-cyano-2-{2-fluoro-4-[1′-(oxetan-3-yl)-3H-spiro[2-benzofuran-1,4′-piperidin]-6-yl]phenyl}ethyl]-3-(dimethylamino)-2-methoxypropanamide]: the IC50 at human DPP1 enzyme is 5 to 15 nM; against DPP1 in HL-60 cells, ≥ 0.0025 µM. In the case of `CN(C)C[C@H](O)C(=O)N[C@H](C#N)Cc1ccc(-c2ccc3cnn(C4CCN(C)CC4)c3c2)cc1F` [Compound 285, (S)—N—((S)-1-cyano-2-(2-fluoro-4-(1-(1-methylpiperidin-4-yl)-1H-indazol-6-yl)phenyl)ethyl)-3-(dimethylamino)-2-hydroxypropanamide], the values for the IC50 on human DPP1 enzyme and against DPP1 in HL-60 cells were 5 to 15 nM and ≥ 0.0025 µM, respectively. For the compound `CO[C@@H](CN(C)C)C(=O)N[C@H](C#N)Cc1ccc(-c2ccc3cnn(C4CCN(C)CC4)c3c2)cc1F` [Compound 286, (S)—N—((S)-1-cyano-2-(2-fluoro-4-(1-(1-methylpiperidin-4-yl)-1H-indazol-6-yl)phenyl)ethyl)-3-(dimethylamino)-2-methoxypropanamide], the IC50 at human DPP1 enzyme is 5 to 15 nM; at DPP1 in HL-60 cells, ≥ 0.0025 µM. On to `CN(C)C[C@H](O)C(=O)N[C@H](C#N)Cc1ccc(-c2ccc3cnn(C4CCN(C5COC5)CC4)c3c2)cc1F` [Compound 287, (2S)—N-[(1S)-1-cyano-2-(2-fluoro-4-{1-[1-(oxetan-3-yl)piperidin-4-yl]indazol-6-yl}phenyl)ethyl]-3-(dimethylamino)-2-hydroxypropanamide], for which the values for the IC50 on human DPP1 enzyme and against DPP1 in HL-60 cells were 5 to 15 nM and ≥ 0.0025 µM, respectively. Take `CO[C@@H](CN(C)C)C(=O)N[C@H](C#N)Cc1ccc(-c2ccc3cnn(C4CCN(C5COC5)CC4)c3c2)cc1F` [Compound 288, (2S)—N-[(1S)-1-cyano-2-(2-fluoro-4-{1-[1-(oxetan-3-yl)piperidin-4-yl]indazol-6-yl}phenyl)ethyl]-3-(dimethylamino)-2-methoxypropanamide]: the IC50 at human DPP1 enzyme is 5 to 15 nM; on DPP1 in HL-60 cells, 0.001 to 0.0025 µM.

As usually defined, the IC50 is the midpoint of a concentration-inhibition curve.

The values are drawn from US20260008758A1, “LINEAR DIPEPTIDYL PEPTIDASE 1 INHIBITORS AND USES THEREOF” (Insmed Incorporated, priority 2024, published 2026).
